Test results taken from patent US20180133221A1, “ADMINISTRATION OF UBIQUITIN-ACTIVATING ENZYME INHIBITOR AND CHEMOTHERAPEUTIC AGENTS” (Millennium Pharmaceuticals, Inc., priority 2014, published 2018).
Like-named read-outs stand apart in the source and are kept apart here.

How the values were obtained:
[1] = tested on: PHTX-17C colorectal carcinoma xenograft; format: in vivo; details: for Tumor Volume Day 21: in mm³ (unit assumed)
From the text: The PHTX-17C colorectal carcinoma xenograft model was established from a patient-derived tumor collected during surgery from a person with moderately differentiated adenocarcinoma.PHTX-17C tumor fragments (approximately 2×2×3 mm^3) were implanted into the subcutaneous space in the right dorsal flank of female nude mice (age 5-7 weeks, Balb/c Nude Mice, Shanghai SINO-British SIPPR/BK Lab Animal Ltd, Shanghai, China) using a 13-gauge trocar. When the mean tumor volume reached approximately 185 mm^3, the animals were randomized into 12 treatment groups (n=5/group).
(§1) Oxaliplatin (Jiang Su Geng Rui Pharmaceuticals, Inc.) is formulated in 0.9% saline and administered by IP injection once weekly (QW) at 7.5 or 12.5 mg/kg. The once weekly schedule is also described as every 7 days (Q7D).
(§2) Compound 1 [((1R,2R,3S,4R)-2,3-dihydroxy-4-(2-(3-(trifluoromethylthio)-phenyl)pyrazolo[1,5-a]pyrimidin-7-ylamino)cyclopentyl)methyl sulfamate] is formulated in 10-20% HPbCD in sterile water and administered intravenously (IV) or subcutaneously (SC) on a BIW (twice/week schedule; Monday and Thursday or Tuesday and Friday) for either 2-4 weeks.
(§3) Tumors were measured twice weekly using vernier calipers. Tumor volumes were calculated using the standard formula V=W^2×L/2,). When mean tumor volumes reached approximately 200 mm^3 for PHTX-24C, 220 mm^3 for PHTX-Lu132, 150 mm^3 for CTG-0256, 260 mm^3 for CTG-0486, 185 mm^3 for PHTX-17C, 260 mm^3 for CTG-0165, 150 mm^3 for PHTX-14B in the study of Compound 1 and paclitaxel, 180 mm^3 for PHTX-14B in the study of Compound 1 and docetaxel, 200 mm^3 for SKOV-3, 220 mm^3 for PHTX-02B in the study of Compound 1 and docetaxel, 250 mm^3 for PHTX-02B in the study of Compound 1 and paclitaxel, 195 mm^3 for CTG-0159, 180 mm^3 for CTG-0012 or 150 mm^3 for Calu-6, mice were randomized into groups of n=5-7/arm as described in the tables below, and injected with vehicle, Compound 1 or agents (docetaxel, paclitaxel, oxaliplatin, cisplatin or carboplatin), or the combination of Compound 1 plus one of the agents, at various doses and schedules as described in tables below. Tumor size and body weight were measured approximately twice a week for the duration of the study. Mice are euthanized when their tumor volume reached 10% of their body weight, or when the average tumor volume of a treatment or control group reached approximately 2000 mm^3. Tumor growth continued to be monitored after the dosing period in some studies. Average tumor volume is reported as a function of time for selected arms of selected studies in the Figures.
(§4) Measurements from day 0 to day 14, day 19, day 21, or day 28 are analyzed as specified in Tables below. All tumor volumes have a value of 1 added to them before log10 transformation. For each animal, the log tumor volume at day 0 is subtracted from the log tumor volume on the subsequent days. This difference vs. time is used to calculate an area under the curve (AUC) for each animal using the trapezoid rule. […] The synergy score for the combination of agents A and B is defined as
(§5) 100*(mean(AUCAB)−mean(AUCA)−mean(AUCB)+mean(AUCctl))/mean(AUCctl):
(§6) where AUCAB, AUCA, AUCB, and AUCctl are the AUC values for animals in the combination group, the A group, the B group, and the control group, respectively. The standard error of the synergy score is computed based on the variation in the AUC values among the animals. […] If the P-value is above 0.05, then the combination is considered to be additive. If the P-value is below 0.05, and the synergy score is less than zero, then the combination is considered to be synergistic.

PHTX-24C colon xenograft = assay: PHTX-24C xenograft model, Compound 1 and oxaliplatin; format: in vivo, CB-17 SCID mice
Protocol: as §1, §2, §3, §4, §5
where AUCAB, AUCA, AUCB, and AUCctl are the AUC values for animals in the combination group, the A group, the B group, and the control group, respectively. […]

[2] = tested on: CTG-0012 human primary triple negative breast cancer model; assay: CTG-0012 xenograft model, Compound 1 and paclitaxel; format: in vivo, Mus musculus/nu/nu mice
Protocol: (§7) Paclitaxel (Bristol-Myers Squibb Company) is formulated in 0.9% saline and administered by intravenous injection (IV) on every 4 days (Q4D) or once weekly (QW) at 10 and 20 mg/kg. […] Tumors were measured twice weekly using vernier calipers.

[3] = tested on: PHTX-14B breast xenograft; assay: PHTX-14B xenograft model, Compound 1 and paclitaxel; format: in vivo, Balb/c Nude Mice; details: for Tumor Volume Day 28: in mm³ (unit assumed)
Protocol: as §7

[4] = tested on: PHTX-02B breast xenograft; assay: PHTX-02B xenograft model, Compound 1 and paclitaxel; format: in vivo, SCID-NOD mice; details: for Tumor Volume Day 19: in mm³ (unit assumed)
Protocol: as §7

[5] = tested on: CTG-0165 human lung NSCLC xenograft; assay: CTG-0165 xenograft model, Compound 1 and cisplatin; format: in vivo, Mus musculus/nu/nu mice
Protocol: CTG-0165 tumor fragments (approximately 2×2×3 mm^3) were implanted into the subcutaneous space in the right dorsal flank of female Mus musculus/nu/nu mice (age 6-9 weeks, Harlan Laboratories, Madison, Wis., USA) using a 13-gauge trocar. When the mean tumor volume reached approximately 260 mm^3, the animals were randomized into 8 treatment groups (n=5/group).
Cisplatin (Teva Pharmaceuticals) is formulated in 0.9% saline and administered by IV injection once weekly (QW) at 7.5 mg/kg. The once weekly schedule is also described as every 7 days (Q7D).
as §2, §3, §4, §5, §6

[6] = tested on: CTG-0486 human ovarian xenograft; format: in vivo
From the text: The CTG-0486 model of human ovarian xenograft model was established from a patient-derived tumor collected during surgery from a person with ovarian cancer (serous adenocarcinoma, metastases to the small bowel). CTG-0486 tumor fragments (approximately 2×2×3 mm^3) are implanted into the subcutaneous space in the right dorsal flank of female Mus musculus/nu/nu mice (age 6-9 weeks, Harlan Laboratories, Madison, Wis., USA) using a 13-gauge trocar needle. When the mean tumor volume reached approximately 260 mm3, the animals were randomized into 8 treatment groups (n=5/group).
[…] The once weekly schedule is also described as every 7 days (Q7D).
as §2, §3, §4, §5, §6

[7] = tested on: PHTX-132Lu non-small cell lung xenograft
From the text: The PHTX-132Lu non-small cell lung xenograft model was established from a patient-derived tumor collected during surgery from a person with lung cancer (Poorly Differentiated Adenocarcinoma). PHTX-132Lu tumor fragments (approximately 2×2×3 mm^3) are implanted into the subcutaneous space in the right dorsal flank of female CB-17 SCID mice (age 10 weeks, Charles River Laboratory, Wilmington, Mass.) using a 13-gauge trocar. When the mean tumor volume reached approximately 220 mm^3, the animals were randomized into 12 treatment groups (n=5/group).
(§8) Carboplatin (Teva Pharmaceuticals) is formulated in 0.9% saline and administered by IP injection once weekly (QW) at 25, 50, 60, and 75 mg/kg. The once weekly schedule is also described as every 7 days (Q7D).
as §2, §3, §4, §5, §6

[8] = tested on: SKOV-3 ovarian cell-line derived xenograft; assay: SKOV-3 xenograft model, Compound 1 and carboplatin; format: in vivo, nude mice; details: for Tumor Volume Day 14: in mm³ (unit assumed)
Protocol: SKOV-3 is an ovarian cell-line derived xenograft. Ten week old female nude mice (Taconic Farms, Inc) were inoculated subcutaneously in flank (cell suspension) with 4.0×10^6 SKOV-3 cells suspended in serum free DMEM+Matrigel. When the mean tumor volume reached approximately 200 mm^3, the animals were randomized into 12 treatment groups (n=5/group).
as §8, §2, §3, §4, §5, §6

[9] = tested on: CTG-0256 human ovarian xenograft; assay: CTG-0256 xenograft model, Compound 1 and carboplatin; format: in vivo, Mus musculus/nu/nu mice
From the text: The CTG-0256 model of human ovarian xenograft model was established from a patient-derived tumor collected during surgery at primary site from a person with ovarian cancer (serous adenocarcinoma with resistant response to carboplatin or paclitaxel). CTG-0256 tumor fragments (approximately 2×2×3 mm^3) were implanted into the subcutaneous space in the right dorsal flank of female Mus musculus/nu/nu mice (age 6-9 weeks, Harlan Laboratories, Madison, Wis.) using a 13-gauge trocar. When the mean tumor volume reached approximately 150 mm^3, the animals were randomized into 7 treatment groups (n=7/group).
as §8, §2, §3, §4, §5, §6

[10] = tested on: PHTX-14B breast xenograft; assay: PHTX-14B xenograft model, Compound 1 and docetaxel; format: in vivo, nude mice; details: for Tumor Volume Day 28: in mm³ (unit assumed)
Protocol: (§9) Docetaxel (Henry Schein, Inc., Pittsburgh Pa.) is formulated in 0.9% saline and administered by intravenous injection (IV) once weekly (QW) at 5 mg/kg or 10 mg/kg. […] Tumors were measured twice weekly using vernier calipers.

[11] = tested on: CTG-0159 human lung NSCLC xenograft; assay: CTG-0159 xenograft model, Compound 1 and docetaxel; format: in vivo, Mus musculus/nu/nu mice; details: 10 mg/kg docetaxel QWx3 IV; in mm³ (unit assumed)
Protocol: as §9

[12] = tested on: Calu-6 non-small cell lung cancer xenograft; assay: Calu-6 xenograft model, Compound 1 and docetaxel; format: in vivo, nude mice; details: for Tumor Volume Day 21: in mm³ (unit assumed)
Protocol: Calu-6 is a non-small cell lung cancer cell-lined derived xenograft model. Nine week old female nude mice (Taconic Farms, Inc) were inoculated subcutaneously in the flank (cell suspension) with 4.0×10^6 Calu-6 cells suspended in serum free MEM. […] Docetaxel (Henry Schein, Inc., Pittsburgh Pa.) is formulated in 0.9% saline and administered by intravenous injection (IV) once weekly (QW) at 5 mg/kg or 10 mg/kg. […] Tumors were measured twice weekly using vernier calipers.

[13] = tested on: PHTX-02B breast xenograft; assay: PHTX-02B xenograft model, Compound 1 and docetaxel; format: in vivo, SCID-NOD mice; details: for Tumor Volume Day 21: in mm³ (unit assumed)
Protocol: as §9

[14] = single agent paclitaxel IV at 10 mg/kg Q4D for 3 weeks
[15] = single agent docetaxel 5 and 10 mg/kg IV QW

## O=C1[O][Pt]2([NH][C@@H]3CCCC[C@H]3[NH]2)[O]C1=O [oxaliplatin, reference compound]
[1]; 7.5 mg/kg oxaliplatin Q7Dx3 IP
  Tumor Volume Day 21: 2017.5
[1]; 12.5 mg/kg oxaliplatin Q7Dx3 IP
  Tumor Volume Day 21: 1758.9
[1]; single agent oxaliplatin IP at 7.5 or 12.5 mg/kg Q7D
  anti-tumor activity compared to vehicle control: modest anti-tumor activity
PHTX-24C colon xenograft; 7.5 mg/kg oxaliplatin Q7Dx2 IP, in mm³ (unit assumed)
  Tumor Volume Day 21: 720.6
PHTX-24C colon xenograft; single agent oxaliplatin 7.5 mg/kg IP Q7D
  anti-tumor activity compared to vehicle control: modest anti-tumor activity

## CC(=O)O[C@H]1C(=O)[C@@]2(C)[C@H]([C@H](OC(=O)c3ccccc3)[C@]3(O)C[C@H](OC(=O)[C@H](O)[C@@H](NC(=O)c4ccccc4)c4ccccc4)C(C)=C1C3(C)C)[C@]1(OC(C)=O)CO[C@@H]1C[C@@H]2O [paclitaxel, reference compound]
[2]; 10 mg/kg paclitaxel Q4Dx3 IV, in mm³ (unit assumed)
  Tumor Volume Day 21: 731.1
[2]; [14]
  anti-tumor activity compared to vehicle control: modest to strong anti-tumor activity
[3]; 10 mg/kg paclitaxel Q7Dx4 IV
  Tumor Volume Day 28: 584.4
[3]; 20 mg/kg paclitaxel Q7Dx4 IV
  Tumor Volume Day 28: 283.6
[3]; paclitaxel 20 mg/kg IV Q7D for 4 weeks
  anti-tumor activity: strong anti-tumor activity
[3]; single agent paclitaxel 10 mg/kg IV Q7D for 4 weeks
  anti-tumor activity compared to vehicle control: modest anti-tumor activity
[4]; 10 mg/kg paclitaxel Q4Dx3 IV
  Tumor Volume Day 19: 1093.5
[4]; 20 mg/kg paclitaxel Q4Dx3 IV
  Tumor Volume Day 19: 245.2
[4]; paclitaxel IV at 20 mg/kg Q4D for 3 weeks
  anti-tumor activity: strong anti-tumor activity
[4]; [14]
  anti-tumor activity compared to vehicle control: minimal to modest anti-tumor activity

## N.N.[Cl][Pt][Cl] [cisplatin, reference compound]
[5]; 7.5 mg/kg cisplatin QWx3 IV, in mm³ (unit assumed)
  Tumor Volume Day 21: 489.3
[5]; single agent cisplatin 7.5 mg/kg Q7D
  anti-tumor activity compared to vehicle control: modest to weak anti-tumor activity

## N.N.O=C([O-])C1(C(=O)[O-])CCC1.[Pt+2] [carboplatin, reference compound]
[6]; 60 mg/kg carboplatin Q7Dx3 IV, in mm³ (unit assumed)
  Tumor Volume Day 21: 400.6
[6]; single agent carboplatin IP at 60 mg/kg Q7D for 3 weeks
  anti-tumor activity compared to vehicle control: modest to strong anti-tumor activity
[7]; 25 mg/kg carboplatin Q7Dx3 IP, in mm³ (unit assumed)
  Tumor Volume Day 21: 727
[7]; 75 mg/kg carboplatin Q7D×3 as single agent (study group 2)
  tolerability: not tolerated
[7]; single agent carboplatin 25 mg/kg IP Q7D
  anti-tumor activity compared to vehicle control: modest anti-tumor activity
[8]; 25 mg/kg carboplatin Q7Dx2 IP
  Tumor Volume Day 14: 932.8
[8]; 75 mg/kg carboplatin Q7Dx2 IP
  Tumor Volume Day 14: 798.5
[8]; single agent carboplatin 25 and 75 mg/kg IP Q7D
  anti-tumor activity compared to vehicle control: modest anti-tumor activity
[9]; 50 mg/kg carboplatin Q7Dx2 IP, in mm³ (unit assumed)
  Volume Tumor Day 14: 1898.1
[9]; single agent carboplatin IP at 50 mg/kg Q7D
  anti-tumor activity compared to vehicle control: modest to weak anti-tumor activity

## CC(=O)O[C@@]12CO[C@@H]1C[C@H](O)[C@@]1(C)C(=O)[C@H](O)C3=C(C)[C@@H](OC(=O)[C@H](O)[C@@H](NC(=O)OC(C)(C)C)c4ccccc4)C[C@@](O)([C@@H](OC(=O)c4ccccc4)[C@H]21)C3(C)C [docetaxel, reference compound]
[10]; 5 mg/kg docetaxel Q7Dx3 IV
  Tumor Volume Day 28: 590.4
[10]; 10 mg/kg docetaxel Q7Dx3 IV
  Tumor Volume Day 28: 195.5
[10]; [15]
  tumor growth compared to the vehicle control group: inhibited tumor growth
[11]
  Tumor Volume Day 21: 103.2
[12]; 5 mg/kg docetaxel Q7Dx3 IV
  Tumor Volume Day 21: 743.7
[12]; 10 mg/kg docetaxel Q7Dx3 IV
  Tumor Volume Day 21: 882.6
[12]; [15]
  anti-tumor responses compared to the vehicle control: modest anti-tumor responses
[13]; 5 mg/kg docetaxel Q7Dx3 IV
  Tumor Volume Day 21: 492.3
[13]; 10 mg/kg docetaxel Q7Dx3 IV
  Tumor Volume Day 21: 232.2
[13]; [15]
  tumor growth compared to the vehicle control group: inhibited tumor growth
